Values after ≈ are worked out from the molar mass of the structure shown. Read-outs that look alike come from different tables or passages of the source. Where a SMILES comes first, the peptide text is derived from it.
Assays:
[1] = test system: MS Staphylococcus aureus ATCC 9144; type: cell-based
[2] = test system: EMR Staphylococcus aureus-16 (EMRSA-16); type: cell-based; settings: EMRSA16
[3] = Electrophysiology (Port-a-Patch patch-clamp) on model membranes
Source text: The depth of insertion into each membrane is shown as the Z-position for each residue, averaged over all four peptides, relative to the phosphate group plane in the upper POPE/POPG (A/E/I) or POPG (C/G/K) bilayer leaflet in six MD simulations. Positive or negative values indicate the peptides are below or above the phosphate group. Representative current traces illustrating membrane activity when DPhPE/DPhPG (B/F/J) or DPhPG (D/H/L) model membranes are challenged with each peptide at the indicated concentration (lowest concentration that induced detectable activity). Data is for pleurocidin (A-D), pleurocidin-KR (E-H) and pleurocidin-VA (I-L). Membrane disordering by each peptide in mixed POPE/POPG bilayers is shown with data obtained from ^2H solid-state NMR (M/N) or from MD simulations where order parameters are calculated for all lipids within 4 Å of a peptide (O/P).
Molecular dynamics simulations. Simulations were carried out on either the ARCHER Cray XC30 supercomputer, or Dell Precision quad core T3400 or T3500 workstations equipped with a 1 kW Power supply (PSU) and two NVIDA PNY GeForce GTX570 or GTX580 graphics cards using Gromacs.^53 The CHARMM36 all-atom force field was used in all simulations^54-56. All simulations were run, as described previously^20 and for a total of 200 nanoseconds and repeated twice, with peptides inserted at different positions and orientations, giving a total of approximately 4.0 μs simulation. Liposome preparation and circular dichroism (CD) spectroscopy. Small unilamellar vesicles (SUV) were produced and far-UV spectra of the peptides obtained as described previously^20 using a Chirascan Plus spectrometer (Applied Photophysics, Leatherhead, UK) with samples maintained at 310 K. For liposome experiments the lipid concentration was 5 mM and a peptide to lipid molar ratio of 1:100 was maintained while the SDS micelles concentration was 20 mM with 200 μM peptide. Electrophysiology experiments (Patch-clamp). Patch clamp experiments were performed using the Port-a-Patch® (Nanion Technologies GmbH, Munich, Germany) with giant unilamellar vesicles (GUVs) composed of DPhPE/DPhPG (60:40, mol:mol) or DPhPG prepared by the electroformation method using the Nanion Vesicle Prep Pro setup (Nanion Technologies GmbH, Munich, Germany) as described previously.^20
Synergy experiments were performed following a checkerboard protocol.

HEK293 = test: Cytotoxicity assay (XTT); type: cell-based, human
Description: (§1) Cytotoxicity assay. HeLa and HEK293 cell lines were purchased from ECACC and cultured in Eagle's Minimum Essential Media (EMEM) containing glutamine, supplemented with 10% FBS and 1× non-essential amino acids (NEAA) at 37° C., 10% CO2. Cytotoxicity was measured by incubating starter cultures of cells for 24 hours in a 96 well plate, gently removing the supernatant and replacing it with dilutions of peptides and controls, incubating for a further 24 hours and then staining of the cells with the second generation tetrazolium dye, XTT. […]

[4] = test system: Acinetobacter baumannii ATCC 17978; type: cell-based; settings: in µg/mL; for MIC, Stability in serum (MH): Ab17978
Klebsiella pneumoniae M6 = type: cell-based
[5] = test system: VR Enterococcus faecium NCTC 12204; test: Antibacterial activity assay (broth microdilution MIC); type: cell-based; settings: VRE12204, in µg/mL
[6] = test system: Pseudomonas aeruginosa PA01; test: as above; type: cell-based
[7] = test system: Klebsiella pneumoniae NCTC 13368; type: cell-based
[8] = test system: Pseudomonas aeruginosa NCTC 13437; test: Antibacterial activity assay (broth microdilution MIC); type: cell-based; settings: PA13437, in µg/mL
[9] = test system: EMR Staphylococcus aureus-15 (EMRSA-15); type: cell-based; settings: EMRSA15
[10] = test system: Escherichia coli NCTC 12923; type: cell-based; settings: EC12923
HeLa = test: Cytotoxicity assay (XTT); type: cell-based, human; parameters: Toxicity HeLa: unit not given beside the values
Description: as §1

[11] = test system: Acinetobacter baumannii AYE; type: cell-based; settings: AYE
[12] = medium and unit not given, in µg/mL
[13] = untitled table, medium/unit inferred, values match RPMI of Table 2
[14] = untitled table, medium/unit not given, values match RPMI of Table 2, in µg/mL
[15] = untitled table, medium/unit not given, values match RPMI of Table 2

In the case of CC(C)C[C@H](NC(=O)[C@H](Cc1ccc(O)cc1)NC(=O)[C@H](Cc1c[nH]cn1)NC(=O)[C@@H](NC(=O)[C@H](CC(C)C)NC(=O)[C@H](C)NC(=O)[C@H](C)NC(=O)[C@H](CCCCN)NC(=O)CNC(=O)[C@@H](NC(=O)[C@H](Cc1c[nH]cn1)NC(=O)[C@H](CCCCN)NC(=O)CNC(=O)[C@@H](NC(=O)[C@H](Cc1c[nH]cn1)NC(=O)[C@H](C)NC(=O)[C@H](C)NC(=O)[C@H](CCCCN)NC(=O)[C@H](CCCCN)NC(=O)[C@H](Cc1ccccc1)NC(=O)[C@H](Cc1ccccc1)NC(=O)[C@H](CO)NC(=O)CNC(=O)[C@H](Cc1c[nH]c2ccccc12)NC(=O)CN)C(C)C)C(C)C)[C@@H](C)O)C(N)=O [Pleurocidin, reference compound] (H-GWGSFFKKAAHVGKHVGKAALTHYL-NH2; N-terminus assumed), the “MIC, Peptide concentration” value ([1]; ATCC 9144) is reported as 2 µg/mL (≈ 0.738 µM), the MIC on initial panels ([1]; MSSA9144, medium and unit inferred) is reported as 4 µg/mL (≈ 1.48 µM) and the MIC ([1]; MSSA9144, untitled table, medium/unit not given, values match RPMI of Table 2, in µg/mL) is reported as 2. For the same compound, the “MIC on initial panels” value [2, 12] was 16, the MIC [2, 13] was 4 µg/mL (≈ 1.48 µM) and the “Peptide concentration necessary to start membrane activity” value ([3]; DPhPE/DPhPG) was 10 µM. The “Peptide concentration necessary to start membrane activity” value ([3]; DPhPG) was 5 µM, the “Toxicity HEK293” value (HEK293; unit not given) was 87.5 ± 11.1 and the “Toxicity HEK293 (EC50), Peptide concentration” value (HEK293; value printed in parentheses) was “(87.5 ± 11.1) μg/ml”. For the same compound, the MIC ([4]; AB17978, (MH)) was 1-2, the MIC ([4]; AB17978, (RPMI)) was 8 and the “MIC on initial panels” value ([4]; AB17978, medium and unit not given) was 1-2. For the same compound, the MIC ([4]; AB17978, untitled table, medium/unit not given, values match RPMI of Table 2) was 8, the “MIC, Stability in serum (MH)” value ([4]; No serum) was 2 and the “MIC, Stability in serum (MH)” value ([4]; Serum (10% fetal bovine serum)) was 2. The MIC (Klebsiella pneumoniae M6; (MH), in µg/mL) was 4, the MIC (Klebsiella pneumoniae M6; (RPMI), in µg/mL) was 32 and the MIC, Stability in serum (MH) (Klebsiella pneumoniae M6; No serum) was 4 µg/mL (≈ 1.48 µM). For the same compound, the MIC, Stability in serum (MH) (Klebsiella pneumoniae M6; Serum (10% fetal bovine serum)) was 8 µg/mL (≈ 2.95 µM), the “MIC on initial panels” value (Klebsiella pneumoniae M6; [12]) was 4 and the MIC (Klebsiella pneumoniae M6; [14]) was 32. For the same compound, the “MIC on initial panels” value ([5]; medium and unit not given) was 16-32, the MIC [5, 15] was 32 and the MIC ([6]; (MH)) was 64 µg/mL (≈ 23.6 µM). For the same compound, the MIC ([6]; (RPMI)) was greater than 32 µg/mL, the “MIC, Stability in serum (MH)” value ([6]; No serum, in µg/mL) was 16 and the “MIC, Stability in serum (MH)” value ([6]; Serum (10% fetal bovine serum), in µg/mL) was 32. The “MIC on initial panels” value [6, 12] was 64, the MIC [6, 13] was greater than 32 µg/mL and the “MIC, Stability in serum (MH)” value ([7]; KP13368, No serum, in µg/mL) was 4. The “MIC, Stability in serum (MH)” value ([7]; KP13368, Serum (10% fetal bovine serum), in µg/mL) was 8, the “MIC on initial panels” value ([7]; KP13368, medium and unit not given, in µg/mL) was 4-8 and the MIC ([7]; KP13368, untitled table, medium/unit not given, values match RPMI of Table 2, in µg/mL) was 32. For the same compound, the MIC ([7]; Klebsiella pneumoniae KP13368, (MH), in µg/mL) was 4-8, the MIC ([7]; Klebsiella pneumoniae KP13368, (RPMI), in µg/mL) was 32 and the “MIC, Peptide concentration” value ([7]; NCTC 13368) was 3 µg/mL (≈ 1.11 µM). The MIC ([8]; (MH)) was 16-32, the MIC ([8]; (RPMI)) was greater than 32 and the “MIC, Stability in serum (MH)” value ([8]; No serum) was 16. For the same compound, the “MIC, Stability in serum (MH)” value ([8]; Serum (10% fetal bovine serum)) was 32, the “MIC on initial panels” value ([8]; medium and unit not given) was 16-32 and the MIC [8, 15] was greater than 32. The MIC on initial panels ([9]; medium and unit inferred) was 16 µg/mL (≈ 5.9 µM), the MIC [9, 13] was 4 µg/mL (≈ 1.48 µM) and the MIC ([10]; (MH), in µg/mL) was 1-2. The MIC ([10]; (RPMI), in µg/mL) was 16, the MIC, Stability in serum (MH) ([10]; No serum) was 2 µg/mL (≈ 0.738 µM) and the MIC, Stability in serum (MH) ([10]; Serum (10% fetal bovine serum)) was 1 µg/mL (≈ 0.369 µM). The “MIC on initial panels” value [10, 12] was 1-2, the MIC [10, 14] was 16 and the “Toxicity HeLa” value (HeLa; unit not given) was 58.2 ± 3.9. For the same compound, the “Toxicity HeLa (EC50), Peptide concentration” value (HeLa; value printed in parentheses) was “(58.2 ± 3.9) μg/ml”, the MIC ([11]; (MH), in µg/mL) was 1-2 and the MIC ([11]; (RPMI), in µg/mL) was 4-8. The MIC, Stability in serum (MH) ([11]; No serum) was 2 µg/mL (≈ 0.738 µM), the MIC, Stability in serum (MH) ([11]; Serum (10% fetal bovine serum)) was 2 µg/mL (≈ 0.738 µM) and the “MIC on initial panels” value [11, 12] was 1-2. The MIC [11, 14] was 4-8.
